Data from article PMC3698108, “Structural and bioactive studies of terpenes and cyclopeptides from the Genus Rubia” (Chemistry Central Journal, 2013).

Experiments:
[1] = test system: BAEC; parameters: method as in PMID 16827808; settings: cited from earlier work
[2] = test system: corneal angiogenesis; parameters: method as in PMID 16827808; settings: cited from earlier work
[3] = test system: HL-60 and HCT-116; parameters: method as in PMID 22298232; settings: cited from earlier work
[4] = test system: Lewis lung carcinoma cells; parameters: method as in PMID 16827808; settings: daily intraperitoneal injection, 1.5 or 3 mg/kg/day, cited from earlier work
[5] = test system: A549, Hela and SMMC-7721; parameters: method as in PMID 21973054; settings: data not very satisfactory; cited from earlier work
[6] = test system: Candida albicans; parameters: method as in PMID 21973054; settings: turbidimetric method; cited from earlier work
[7] = test system: Staphylococcus aureus; parameters: method as in PMID 21973054; settings: turbidimetric method; cited from earlier work
[8] = test system: Protein kinase C (PKC); settings: cited from earlier work
[9] = test system: human colon-cancer cells; parameters: method as in PMID 18790561, PMID 18298868; settings: intrinsic mitochondrial pathway; cited from earlier work
[10] = test system: pancreatic tumor; parameters: method as in PMID 20367887; settings: cited from earlier work
[11] = test system: human immunodeficiency virus (HIV-1) protease; parameters: method as in PMID 8759159; settings: cited from earlier work
[12] = parameters: method as in PMID 17978478; settings: KK-A^y mice; cited from earlier work
[13] = test system: iNOS; parameters: method as in PMID 12808242; settings: cited from earlier work
[14] = test system: RAW 264.7 murine macrophages; settings: cited from earlier work
[15] = test system: HUVEC and HMEC-1; parameters: method as in PMID 21518338; settings: cited from earlier work

COc1ccc(C[C@H]2C(=O)N[C@@H](C)C(=O)N(C)[C@H]3Cc4ccc(cc4)Oc4cc(ccc4OC)C[C@@H](C(=O)N[C@H](C)C(=O)N[C@@H](C)C(=O)N2C)N(C)C3=O)cc1 [Compound 74, RA-VII]
antiangiogenic activity on proliferation, migration, stress fiber formation of BAEC [1]: antiangiogenic activity
mouse corneal angiogenesis [2]: effects on mouse corneal angiogenesis
cytotoxic activities against HL-60 and HCT-116 [3]: potent cytotoxicities
growth of Lewis lung carcinoma cells inoculated into mice [4]: significantly and dose dependently inhibited
toxic effects on animals ([4]; mice): no toxic effects

CC(=O)O[C@@H]1C[C@@H](C(C)C)[C@]2(CO)CC[C@@]3(C)[C@H]4C(=CC[C@]3(C)[C@@H]12)[C@@]1(C)CC[C@H](O)C(C)(C)[C@@H]1C[C@@H]4O [Compound 22, Rubiarbonol G]
inhibition on A549, Hela and SMMC-7721 [5]: had inhibition
antifungal activity against Candida albicans [6]: exhibited inhibition
antibacterial activity against Staphylococcus aureus [7]: exhibited inhibition
melting point: 170 to 173 °C

CC1(C)CC[C@]2(C(=O)O)CC[C@]3(C)C(=CC[C@@H]4[C@@]5(C)C[C@@H](O)[C@H](O)C(C)(C)[C@@H]5CC[C@]43C)[C@@H]2C1 [Compound 9, Maslinic acid]
PKC inhibition [8]: acted as a PKC inhibitor
caspase-dependent apoptosis [9]: induce caspase-dependent apoptosis
effect on anti-tumor activities of TNF-α [10]: potentiate anti-tumor activities of TNF-α
pancreatic tumor growth and invasion [10]: inhibit pancreatic tumor growth and invasion
inhibition on HIV-1 protease [11]: possess inhibition
glucose-lowering and hypoinsulinemic effects [12]: significant glucose-lowering and hypoinsulinemic effects

COc1ccc(C[C@H]2C(=O)N[C@@H](C)C(=O)N(C)[C@H]3Cc4ccc(cc4)Oc4cc(ccc4O)C[C@@H](C(=O)N[C@H](C)C(=O)N[C@@H](C)C(=O)N2C)N(C)C3=O)cc1 [Compound 71, RA-V]
effects on iNOS induction [13]: potent effects
activity against NO production in LPS [14]: exhibited activity
cytotoxic activities against HL-60 and HCT-116 [3]: potent cytotoxicities
antiangiogenic activity in HUVEC and HMEC-1 [15]: possessed the activity
